Laboratory results: ChEMBL document CHEMBL1131924, “Synthesis and biological evaluation of 1alpha,24-dihydroxy-25-nitrovitamin D3” (1999)

Tests used:
HL-60 = test: Cell differentiation activity towards HL-60 cells assessed in terms of 4-nitro-blue tetrazolium (NBT) reactivity; type: functional, Homo sapiens
[1] = molecular target: T1, Vitamin D3 receptor (Gallus gallus) (UniProt O42392); test: Relative binding affinity for chick intestinal Vitamin D3 receptor (VDR)
T1 sequence (whole entry): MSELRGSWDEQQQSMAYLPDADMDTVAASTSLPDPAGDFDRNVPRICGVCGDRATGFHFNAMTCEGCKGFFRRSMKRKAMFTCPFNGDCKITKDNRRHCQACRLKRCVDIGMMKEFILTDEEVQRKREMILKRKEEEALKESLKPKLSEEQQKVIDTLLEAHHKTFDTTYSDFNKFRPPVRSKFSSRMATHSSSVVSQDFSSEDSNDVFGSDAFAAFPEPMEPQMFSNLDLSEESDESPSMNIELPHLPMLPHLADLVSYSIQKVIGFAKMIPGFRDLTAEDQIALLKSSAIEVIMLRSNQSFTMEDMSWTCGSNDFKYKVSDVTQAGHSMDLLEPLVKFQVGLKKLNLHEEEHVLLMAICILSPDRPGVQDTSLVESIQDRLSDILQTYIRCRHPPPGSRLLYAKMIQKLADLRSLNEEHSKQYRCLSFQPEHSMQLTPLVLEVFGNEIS

Row | Binding affinity [1] | SMILES | Activity (HL-60)
1 | 131 | C=C1/C(=C\C=C2/CCC[C@]3(C)[C@@H]([C@H](C)CC[C@@H](O)C(C)C)CC[C@@H]23)C[C@@H](O)C[C@@H]1O [TACALCITOL] | 182
2 | 10 | C=C1/C(=C\C=C2/CCC[C@]3(C)[C@@H]([C@H](C)CC[C@H](O)C(C)(C)[N+](=O)[O-])CC[C@@H]23)C[C@@H](O)C[C@@H]1O | 12
3 | 93 | C=C1/C(=C\C=C2/CCC[C@]3(C)[C@@H]([C@H](C)CC[C@@H](O)C(C)(C)[N+](=O)[O-])CC[C@@H]23)C[C@@H](O)C[C@@H]1O | 182
4 | 10 | C=C1/C(=C\C=C2/CCC[C@]3(C)[C@@H]([C@H](C)CC[C@H](O)C(C)C)CC[C@@H]23)C[C@@H](O)C[C@@H]1O | 18
5 | 100 | C=C1/C(=C\C=C2/CCC[C@]3(C)[C@@H]([C@H](C)CCCC(C)(C)O)CC[C@@H]23)C[C@@H](O)C[C@@H]1O [CALCITRIOL] | 100
